Assay results reported in the NIST ThermoML archive (doi:10.1021/je0501843).
Where “and” joins values, the source holds several entries; their conditions need not be identical. Equal entries are not always repeated.

Assay: molar heat capacity at constant volume
Details: Fluid (supercritical or subcritical phases), Vacuum adiabatic calorimetry

FC(F)C(F)(F)F [pentafluoroethane]
Details | molar heat capacity at constant volume
382 K, Mass density=585 kg/m3 | 117.04 J/K/mol
382 K, Mass density=687.5 kg/m3 | 116.38 J/K/mol
382 K, Mass density=772.5 kg/m3 | 113.59 J/K/mol
382 K, Mass density=880.7 kg/m3 | 113.14 J/K/mol
382 K, Mass density=972.5 kg/m3 | 113.55 J/K/mol and 110.23 J/K/mol
383 K, Mass density=403.3 kg/m3 | 116.83 J/K/mol
383 K, Mass density=502.6 kg/m3 | 115.94 J/K/mol
383 K, Mass density=585 kg/m3 | 116.44 J/K/mol
383 K, Mass density=687.4 kg/m3 | 115.8 J/K/mol
383 K, Mass density=772.4 kg/m3 | 112.32 J/K/mol
383 K, Mass density=880.7 kg/m3 | 112.41 J/K/mol
383 K, Mass density=972.4 kg/m3 | 107.88 J/K/mol and 110.36 J/K/mol
384 K, Mass density=403.3 kg/m3 | 115.53 J/K/mol
384 K, Mass density=502.6 kg/m3 | 114.75 J/K/mol
384 K, Mass density=585 kg/m3 | 115.28 J/K/mol
384 K, Mass density=687.4 kg/m3 | 113.97 J/K/mol
384 K, Mass density=772.4 kg/m3 | 111.67 J/K/mol
384 K, Mass density=880.6 kg/m3 | 112.26 J/K/mol
384 K, Mass density=972.3 kg/m3 | 108.78 J/K/mol and 109.57 J/K/mol
385 K, Mass density=403.2 kg/m3 | 109.7 J/K/mol
385 K, Mass density=502.5 kg/m3 | 112.54 J/K/mol
385 K, Mass density=584.9 kg/m3 | 115.82 J/K/mol
385 K, Mass density=687.4 kg/m3 | 113.72 J/K/mol
385 K, Mass density=772.3 kg/m3 | 112.59 J/K/mol
385 K, Mass density=880.6 kg/m3 | 111.79 J/K/mol
385 K, Mass density=972.3 kg/m3 | 110.01 J/K/mol and 109.27 J/K/mol
386 K, Mass density=403.2 kg/m3 | 109.65 J/K/mol
386 K, Mass density=502.5 kg/m3 | 114.07 J/K/mol
386 K, Mass density=584.9 kg/m3 | 117.48 J/K/mol
386 K, Mass density=687.3 kg/m3 | 115.04 J/K/mol
386 K, Mass density=772.3 kg/m3 | 114.08 J/K/mol
386 K, Mass density=880.5 kg/m3 | 113.14 J/K/mol
386 K, Mass density=972.2 kg/m3 | 111.04 J/K/mol and 111.43 J/K/mol
387 K, Mass density=403.2 kg/m3 | 111.98 J/K/mol
387 K, Mass density=502.5 kg/m3 | 114.1 J/K/mol
387 K, Mass density=584.9 kg/m3 | 115.44 J/K/mol
387 K, Mass density=687.3 kg/m3 | 115.22 J/K/mol
387 K, Mass density=772.2 kg/m3 | 113.77 J/K/mol
387 K, Mass density=880.4 kg/m3 | 113.04 J/K/mol
387 K, Mass density=972.1 kg/m3 | 109.68 J/K/mol and 111.27 J/K/mol
388 K, Mass density=403.2 kg/m3 | 113.46 J/K/mol
388 K, Mass density=502.5 kg/m3 | 111.2 J/K/mol
388 K, Mass density=584.8 kg/m3 | 114.82 J/K/mol
388 K, Mass density=687.2 kg/m3 | 114.32 J/K/mol
388 K, Mass density=772.2 kg/m3 | 113.36 J/K/mol
388 K, Mass density=880.4 kg/m3 | 110.83 J/K/mol
388 K, Mass density=972 kg/m3 | 109.02 J/K/mol and 109.9 J/K/mol
389 K, Mass density=403.2 kg/m3 | 112.17 J/K/mol
389 K, Mass density=502.4 kg/m3 | 110.52 J/K/mol
389 K, Mass density=584.8 kg/m3 | 116.36 J/K/mol
389 K, Mass density=687.2 kg/m3 | 114.28 J/K/mol
389 K, Mass density=772.1 kg/m3 | 114.22 J/K/mol
389 K, Mass density=880.3 kg/m3 | 112.08 J/K/mol
389 K, Mass density=972 kg/m3 | 110.08 J/K/mol and 110.71 J/K/mol
390 K, Mass density=403.1 kg/m3 | 112.23 J/K/mol
390 K, Mass density=502.4 kg/m3 | 112.47 J/K/mol
390 K, Mass density=584.8 kg/m3 | 115.03 J/K/mol
390 K, Mass density=687.2 kg/m3 | 115.41 J/K/mol
390 K, Mass density=772.1 kg/m3 | 115.46 J/K/mol
390 K, Mass density=880.2 kg/m3 | 113.85 J/K/mol
390 K, Mass density=971.9 kg/m3 | 113.14 J/K/mol and 111.04 J/K/mol
